# Assay results reported in ChEMBL document CHEMBL4765295, “Synthesis, pharmacological profile and 2D-QSAR studies of curcumin-amino acid conjugates as potential drug candidates” (Eur J Med Chem, 2020).
# “And” between values parts separate entries of the source, which are not always exact repeats. Equal entries are not always repeated.
# Tests used:
# [1] = system: Rattus norvegicus; test: Antiinflammatory activity in Wistar rat model of carrageenan-induced paw edema assessed as reduction in thickness of paw edema at 10 mg/kg, ip pretreated for 1 hr followed by carrageenan challenge and measured after 2 hrs (reference value: 2.06 +/-0.09 mm); assay type: functional; conditions: time 3 hrs
# [2] = system: Mus musculus; test: Analgesic activity in albino mouse assessed protection against acetic acid-induced abdominal writhing at 10 mg/kg, ip pretreated for 1 hr followed by acetic acid challenge and measured starting 5 mins post acetic acid challenge for 10 mins relative to indomethacin; assay type: functional; conditions: time 75 min, 1.25 h
# [3] = system: Rattus norvegicus; test: Antiinflammatory activity in Wistar rat model of carrageenan-induced paw edema assessed as reduction in thickness of paw edema at 10 mg/kg, ip pretreated for 1 hr followed by carrageenan challenge and measured after 24 hrs (reference value: 0.83 +/-0.08 mm); assay type: functional; conditions: time 25 hrs
# [4] = system: Rattus norvegicus; test: Anti-inflammatory activity in Wistar rat assessed as inhibition of carrageenan-induced paw edema at 10 mg/kg, ip pretreated for 1 hr followed by carrageenan challenge and measured after 4 hr relative to indomethacin; assay type: functional; conditions: time 5 hrs
# [5] = Ulcerogenic activity in fasted albino mouse assessed as average severity of ulcers in gastric mucosa at 10 mg/kg, po for 3 days (reference value: 0); assay type: toxicity, organism-based; conditions: in vivo, 72 h, time 3 day
# [6] = system: Mus musculus; test: Analgesic activity in albino mouse assessed as forepaw licking/jumping latency time at 10 mg/kg, ip measured after 120 mins by hot plate test (reference value: 2.62 +/- 0.06 sec); assay type: functional; conditions: 2 h
# [7] = system: Mus musculus; test: Analgesic activity in albino mouse assessed protection against acetic acid-induced abdominal writhing at 10 mg/kg, ip pretreated for 1 hr followed by acetic acid challenge and measured starting 5 mins post acetic acid challenge for 10 mins relative to control (reference value: 0 %); assay type: functional; conditions: time 75 min, 1.25 h
# [8] = system: Mus musculus; test: Analgesic activity in albino mouse assessed as protection at 10 mg/kg, ip measured after 120 mins by hot plate test relative to indomethacin; assay type: functional; conditions: 2 h
# [9] = system: Mus musculus; test: Analgesic activity in albino mouse assessed as forepaw licking/jumping latency time at 10 mg/kg, ip measured after 30 mins by hot plate test (reference value: 5.02 +/- 0.09 sec); assay type: functional; conditions: 0.5 h
# [10] = system: Pseudomonas aeruginosa; test: Antibacterial activity against Pseudomonas aeruginosa ATCC 27853 incubated for 18 hrs by agar dilution assay; assay type: functional
# [11] = system: Mus musculus; test: Analgesic activity in albino mouse assessed as protection at 10 mg/kg, ip measured after 90 mins by hot plate test (reference value: 0 %); assay type: functional; conditions: 1.5 h
# [12] = system: Splenocyte; test: Immunomodulatory activity in Swiss albino mouse splenocytes assessed as cell viability at 10 uM by measuring inhibition of stimulation index incubated for 72 hrs in presence of mitogenic stimulus phytohaemagglutinin by MTT assay relative to indomethacin; assay type: functional; conditions: read-out: Activity
# [13] = system: Rattus norvegicus; test: Antiinflammatory activity in Wistar rat model of carrageenan-induced paw edema assessed as reduction in thickness of paw edema at 10 mg/kg, ip pretreated for 1 hr followed by carrageenan challenge and measured after 3 hrs (reference value: 1.79 +/-0.07 mm); assay type: functional; conditions: time 4 hrs
# [14] = system: Mus musculus; test: Analgesic activity in albino mouse assessed as protection at 10 mg/kg, ip measured after 30 mins by hot plate test (reference value: 0 %); assay type: functional; conditions: 0.5 h
# [15] = system: Peritoneal macrophage; test: Antiinflammatory activity in […] mouse Peritoneal macrophages assessed as reduction in LPS-induced NO production by measuring reduction in stimulation index at 10 uM preincubated for 1 hr followed by LPS stimulation measured after 24 hrs by Griess method (reference value: 27.31 +/- 2.56 uM); assay type: functional; conditions: time 25 hrs
# [16] = system: Mus musculus; test: Analgesic activity in albino mouse assessed reduction in acetic acid-induced abdominal writhing by measuring writing reflex at 10 mg/kg, ip pretreated for 1 hr followed by acetic acid challenge and measured starting 5 mins post acetic acid challenge for 10 mins (reference value: 42.4 +/- 1.02); assay type: functional; conditions: time 75 min, 1.25 h
# [17] = system: Staphylococcus aureus; test: Antibacterial activity against Staphylococcus aureus ATCC 25923 incubated for 18 hrs by agar dilution method; assay type: functional
# [18] = system: Rattus norvegicus; test: Anti-inflammatory activity in Wistar rat assessed as inhibition of carrageenan-induced paw edema at 10 mg/kg, ip pretreated for 1 hr followed by carrageenan challenge and measured after 24 hr relative to control (reference value: 0.00 +/-0.3 %); assay type: functional; conditions: time 25 hrs
# [19] = Toxicity in albino mouse assessed as induction of toxic symptoms at 50 to 100 mg/kg, ip measured after 24 hrs; assay type: organism-based; conditions: in vivo, dose 50-100 mg/kg
# [20] = system: Splenocyte; test: Immunomodulatory activity in Swiss albino mouse splenocytes assessed as cell viability at 10 uM by measuring stimulation index incubated for 72 hrs in presence of mitogenic stimulus phytohaemagglutinin by MTT assay (reference value: 1.00 +/- 0.24); assay type: functional
# [21] = system: Rattus norvegicus; test: Anti-inflammatory activity in Wistar rat assessed as inhibition of carrageenan-induced paw edema at 10 mg/kg, ip pretreated for 1 hr followed by carrageenan challenge and measured after 2 hr relative to control (reference value: 0.00 +/-0.03 %); assay type: functional; conditions: time 3 hrs
# [22] = system: Mus musculus; test: Analgesic activity in albino mouse assessed as forepaw licking/jumping latency time at 10 mg/kg, ip measured after 60 mins by hot plate test (reference value: 3.42 +/- 0.03 sec); assay type: functional; conditions: 1 h
# [23] = system: Salmonella typhimurium; test: Antibacterial activity against Salmonella typhimurium ATCC 19430 incubated for 18 hrs by agar dilution assay; assay type: functional, Salmonella enterica subsp. enterica serovar Typhimurium; conditions: Salmonella enterica
# [24] = system: Peritoneal macrophage; test: Antiinflammatory activity in […] mouse Peritoneal macrophages assessed as inhibition of LPS-induced NO production at 10 uM preincubated for 1 hr followed by LPS stimulation measured after 24 hrs by Griess method relative to control (reference value: 0.0 %); assay type: functional; set-up: scale not given: the % may be the effect or the level left; conditions: time 25 hrs
# [25] = system: Mus musculus; test: Analgesic activity in albino mouse assessed as forepaw licking/jumping latency time at 10 mg/kg, ip measured after 90 mins by hot plate test (reference value: 2.72 +/- 0.01 sec); assay type: functional; conditions: 1.5 h
# [26] = system: Rattus norvegicus; test: Antiinflammatory activity in Wistar rat model of carrageenan-induced paw edema assessed as reduction in thickness of paw edema at 10 mg/kg, ip pretreated for 1 hr followed by carrageenan challenge and measured after 4 hrs (reference value: 1.40 +/-0.10 mm); assay type: functional; conditions: time 5 hrs
# [27] = system: Rattus norvegicus; test: Antiinflammatory activity in Wistar rat model of carrageenan-induced paw edema assessed as reduction in thickness of paw edema at 10 mg/kg, ip pretreated for 1 hr followed by carrageenan challenge and measured after 1 hr (reference value: 2.41 +/-0.05 mm); assay type: functional; conditions: time 1 hr after carrageenan
# [28] = system: Mus musculus; test: Analgesic activity in albino mouse assessed as protection at 10 mg/kg, ip measured after 120 mins by hot plate test (reference value: 0 %); assay type: functional; conditions: 2 h
# [29] = system: Rattus norvegicus; test: Anti-inflammatory activity in Wistar rat assessed as inhibition of carrageenan-induced paw edema at 10 mg/kg, ip pretreated for 1 hr followed by carrageenan challenge and measured after 4 hr relative to control (reference value: 0.00 +/-0.4 %); assay type: functional; conditions: time 5 hrs
# [30] = Ulcerogenic activity in fasted albino mouse assessed as ulcer index in gastric mucosa at 10 mg/kg, po for 3 days (reference value: 0); assay type: toxicity, organism-based; conditions: in vivo, 72 h, time 3 day
# [31] = system: Mus musculus; test: Analgesic activity in albino mouse assessed as protection at 10 mg/kg, ip measured after 60 mins by hot plate test (reference value: 0 %); assay type: functional; conditions: 1 h
# [32] = system: Candida albicans; test: Antifungal activity against Candida albicans incubated for 18 to 24 hrs by CLSI method; assay type: functional; conditions: time 18-24 hrs
# [33] = Ulcerogenic activity in fasted albino mouse assessed as incidence of gastric ulceration at 10 mg/kg, po for 3 days (reference value: 0 %); assay type: toxicity, organism-based; conditions: in vivo, 72 h, time 3 day
# [34] = system: Rattus norvegicus; test: Anti-inflammatory activity in Wistar rat assessed as inhibition of carrageenan-induced paw edema at 10 mg/kg, ip pretreated for 1 hr followed by carrageenan challenge and measured after 3 hr relative to control (reference value: 0.00 +/-0.1 %); assay type: functional; conditions: time 4 hrs
# [35] = system: Rattus norvegicus; test: Anti-inflammatory activity in Wistar rat assessed as inhibition of carrageenan-induced paw edema at 10 mg/kg, ip pretreated for 1 hr followed by carrageenan challenge and measured after 1 hr relative to control (reference value: 0.00 +/-0.02 %); assay type: functional; conditions: time 2 hrs
# [36] = Ulcerogenic activity in fasted albino mouse assessed as average number of ulcers in gastric mucosa at 10 mg/kg, po for 3 days (reference value: 0); assay type: toxicity, organism-based; conditions: in vivo, 72 h, time 3 day
# [37] = system: Streptococcus pyogenes; test: Antibacterial activity against Streptococcus pyogenes ATCC 19615 incubated for 18 hrs by agar dilution method; assay type: functional
Structure (SMILES),Activity [1],Activity [2],Activity [3],inhibition in vivo at 10 mg/kg [4],Activity [5],Time [6],Activity [7],Activity [8],Time [9],MIC [10],Activity [11],viability at 10 µM [12],Activity [13],Activity [14],Activity [16],MIC [17],inhibition in vivo at 10 mg/kg [18],Activity [19],Activity_index [20],inhibition in vivo at 10 mg/kg [21],other results
COc1cc(/C=C/C(=O)/C=C(O)/C=C/c2ccc(OC(=O)[C@H](CCSC)NC(=O)OCC3c4ccccc4-c4ccccc43)c(OC)c2)ccc1OC(=O)[C@H](CCSC)NC(=O)OCC1c2ccccc2-c2ccccc21,0.56 mm,100.3%,0.64 mm,113%,0,2.98 s,61.8%,32.6%,6.82 s,2 µg/mL and 1.86 µM,24.3%,113%,0.45 mm,35.9%,16.2,0.25 µg/mL and 0.233 µM,23%,Non-Toxic,1.07,73%,Activity [15]: 14.23 µM; Time [22]: 5.02 s; MIC [23]: 2 µg/mL and 1.86 µM; Activity [24]: 47.91%; Time [25]: 3.38 s; Activity [26]: 0.03 mm; Activity [27]: 1.3 mm; Activity [28]: 13.7%; inhibition in vivo at 10 mg/kg [29]: 98%; UI [30]: 0; Activity [31]: 46.8%; MIC [32]: 0.5 µg/mL and 0.465 µM; Activity [33]: 0%; inhibition in vivo at 10 mg/kg [34]: 75%; inhibition in vivo at 10 mg/kg [35]: 46%; Activity [36]: 0; MIC [37]: 0.125 µg/mL and 0.116 µM
COc1cc(/C=C/C(=O)/C=C(O)/C=C/c2ccc(OC(=O)[C@H](CCSC)NC(=O)OC(C)(C)C)c(OC)c2)ccc1OC(=O)[C@H](CCSC)NC(=O)OC(C)(C)C,1.31 mm,115.3%,0.64 mm,101%,0,3.86 s,71%,112.6%,5.74 s,1 µg/mL and 1.2 µM,56.6%,88.5%,1.01 mm,14.3%,12.3,2 µg/mL and 2.41 µM,23%,Non-Toxic,1.37,36%,Activity [15]: 16.16 µM; Time [22]: 5.84 s; MIC [23]: 2 µg/mL and 2.41 µM; Activity [24]: 40.84%; Time [25]: 4.26 s; Activity [26]: 0.17 mm; Activity [27]: 1.59 mm; Activity [28]: 47.3%; inhibition in vivo at 10 mg/kg [29]: 88%; UI [30]: 0; Activity [31]: 70.8%; MIC [32]: 1 µg/mL and 1.2 µM; Activity [33]: 0%; inhibition in vivo at 10 mg/kg [34]: 44%; inhibition in vivo at 10 mg/kg [35]: 34%; Activity [36]: 0; MIC [37]: 2 µg/mL and 2.41 µM
COc1cc(/C=C/C(=O)/C=C(O)/C=C/c2ccc(OC(=O)[C@@H](CCSC)NC(=O)OC(C)(C)C)c(OC)c2)ccc1OC(=O)[C@@H](CCSC)NC(=O)OC(C)(C)C,0.63 mm,87.3%,0.49 mm,102%,0,4.48 s,53.8%,169%,5.14 s,0.25 µg/mL and 0.301 µM,77.2%,47.7%,0.47 mm,2.4%,19.6,0.25 µg/mL and 0.301 µM,41%,Non-Toxic,2.53,69%,Time [22]: 5.48 s; MIC [23]: 1 µg/mL and 1.2 µM; Time [25]: 4.82 s; Activity [26]: 0.15 mm; Activity [27]: 1.1 mm; Activity [28]: 71%; inhibition in vivo at 10 mg/kg [29]: 89%; UI [30]: 0; Activity [31]: 60.2%; MIC [32]: 0.5 µg/mL and 0.602 µM; Activity [33]: 0%; inhibition in vivo at 10 mg/kg [34]: 74%; inhibition in vivo at 10 mg/kg [35]: 58%; Activity [36]: 0; MIC [37]: 0.125 µg/mL and 0.15 µM
